Reference: PMC9608620, “Synthesis and Identification of New N,N-Disubstituted Thiourea, and Thiazolidinone Scaffolds Based on Quinolone Moiety as Urease Inhibitor” (Molecules, 2022)
In brackets after ≈: the same amount, converted by molar mass. Like-named read-outs stand apart in the source and are kept apart here.

Tests used:
[1] = molecular target: T1, urease (Jack bean urease) (Canavalia ensiformis, UniProt P07374); test: biochemical; format: biochemical
Description: In vitro screening and inhibitory studies on urease (Jack bean urease) were determined using the colored Berthelot phenols method, which measures the liberation of ammonia from the reaction. Briefly, the assay mixture containing 1 unit of the enzyme was added to 650 µL of buffer solution (50 mmol phosphate buffer Ph 6.7, 400 mmol sodium salicylate, 10 mmol sodium nitroprusside, and 2 mmol EDTA/L) and mixed with 10 µL of different concentration 0.1–100 Mm of the tested compounds in DMF as a solvent. […] After 15 min incubation at room temperature, 10 µL of 50 mg/L urea solution was added. The mixture was incubated for 0.5 h in a water bath at 37 °C to allow the hydrolysis process.
After complete urea hydrolysis and ammonia liberation, the reaction was stopped by adding 200 µL of the hypochlorite reagent (150 mmol/L sodium hydroxide, 140 mm/L sodium hypochlorite). The liberated ammonia was allowed to complex with the hypochlorite and salicylate for 25 min at 30 °C. The absorbance was measured at 578 nm using a UV/VIS Spectrophotometer (Optizen POP, 5U4608, Daejeon, Korea), and experiments were performed in triplicate in a final volume of 1 mL. […] The percentage inhibition was calculated as the difference of absorbance values with and without the test compounds. The concentration that provokes an inhibition halfway between the minimum and maximum response of each compound (relative IC50) was determined by monitoring the inhibition effect of various concentrations of compounds in the assay.

[2] = tested on: Proteus mirabilis (P. mirabilis) strain; test: Antibacterial screening, cup-plate diffusion method; format: cell-based; details: urease-positive clinical isolate from urine, number in brackets, read-out: MIC P. mirabilis (given in brackets)
Description: The Proteus mirabilis (P. mirabilis) strain was isolated from the urine of patients suffering from urinary tract infections. […] The test was performed using the cup-plate diffusion method

[3] = molecular target: T1, urease (Jack bean urease); details: read-out: IC50 (µM) Urease; lead compound of the design rationale; cited from earlier work
[4] = Jack bean urease, triplicate, relative IC50, read-out: IC50 (µM) Urease

T1 sequence (P07374 whole entry, looked up): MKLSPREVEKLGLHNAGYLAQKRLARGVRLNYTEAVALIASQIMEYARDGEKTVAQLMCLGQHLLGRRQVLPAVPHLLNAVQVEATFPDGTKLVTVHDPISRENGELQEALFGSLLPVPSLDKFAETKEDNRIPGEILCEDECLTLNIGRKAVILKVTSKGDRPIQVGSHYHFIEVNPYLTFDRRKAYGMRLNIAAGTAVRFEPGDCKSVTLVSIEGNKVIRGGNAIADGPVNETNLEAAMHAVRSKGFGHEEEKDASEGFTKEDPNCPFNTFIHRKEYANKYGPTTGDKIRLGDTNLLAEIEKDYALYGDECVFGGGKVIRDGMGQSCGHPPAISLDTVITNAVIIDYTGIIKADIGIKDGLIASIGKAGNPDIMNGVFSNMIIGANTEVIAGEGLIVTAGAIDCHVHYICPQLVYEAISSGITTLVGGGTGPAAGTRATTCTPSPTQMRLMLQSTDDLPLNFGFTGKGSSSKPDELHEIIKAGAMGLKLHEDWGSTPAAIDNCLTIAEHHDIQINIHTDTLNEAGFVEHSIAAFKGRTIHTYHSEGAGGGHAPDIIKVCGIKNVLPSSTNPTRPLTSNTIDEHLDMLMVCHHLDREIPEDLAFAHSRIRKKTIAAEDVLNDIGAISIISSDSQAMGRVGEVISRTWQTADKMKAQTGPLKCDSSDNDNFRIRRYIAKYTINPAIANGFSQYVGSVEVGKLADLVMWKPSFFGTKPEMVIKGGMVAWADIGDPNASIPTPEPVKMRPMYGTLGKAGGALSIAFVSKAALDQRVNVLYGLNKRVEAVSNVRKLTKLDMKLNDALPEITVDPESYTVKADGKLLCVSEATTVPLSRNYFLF

SMILES: C=CCN1C(=O)/C(=C\C(=O)OC)S/C1=N\NC(=O)COc1cc(=O)[nH]c2ccc(C)cc12 [Compound 7f, (E)-Methyl 2-((Z)-3-allyl-2-(2-(2-((6-methyl-2-oxo-1,2-dihydroquinolin-4-yl)oxy)-acetyl)hydrazono)-4-oxothiazolidin-5-ylidene)acetate]
- melting point: 232 to 233 °C
- IC50 [1]: 31.58 ± 0.15 µM
- MIC [2]: 200 µg/mL (≈ 438 µM)

SMILES: C=CCNC(=S)NNC(=O)COc1cc(=O)[nH]c2ccccc12 [Compound 5f, N-Allyl-2-(2-((2-oxo-1,2-dihydroquinolin-4-yl)oxy)acetyl)hydrazinecarbothioamide]
- melting point: 169 to 171 °C
- IC50 [1]: 9.45 ± 0.08 µM
- MIC [2]: 100 µg/mL (≈ 301 µM)

SMILES: Cn1c(=O)cc(OCC(=O)NNC(=S)NCc2ccccc2)c2ccccc21 [Compound 5b, N-Benzyl-2-(2-((1-methyl-2-oxo-1,2-dihydroquinolin-4-yl)oxy)acetyl)hydrazinecarbothioamide]
- melting point: 190 to 192 °C
- IC50 [1]: 2.58 ± 0.1 µM
- MIC [2]: 100 µg/mL (≈ 252 µM)

SMILES: CCOC(=O)/C=C1/S/C(=N\NC(=O)COc2cc(=O)[nH]c3ccc(C)cc23)N(Cc2ccccc2)C1=O [Compound 7h, (E)-Ethyl 2-((Z)-3-benzyl-2-(2-(2-((6-methyl-2-oxo-1,2-dihydroquinolin-4-yl)oxy)acetyl)-hydrazono)-4-oxothiazolidin-5-ylidene)acetate]
- melting point: 233 to 235 °C
- IC50 [1]: 31.3 ± 0.36 µM
- MIC [2]: 200 µg/mL (≈ 384 µM)

SMILES: CCNC(=S)NNC(=O)Cn1c(Cc2ccc(F)cc2)nc2ccccc2c1=O [lead I, N-ethyl-2-(2-(2-(4-fluorobenzyl)-4-oxoquinazolin-3(4H)-yl)acetyl)hydrazinecarbothioamide]
- IC50 [3]: 6.02 ± 0.27 µM

SMILES: CC(=O)NO [Acetohydroxamic acid, reference compound]
- IC50 [1, 4]: 21 ± 0.94 µM

SMILES: COC(=O)/C=C1/SC(=NNC(=O)COc2cc(=O)[nH]c3ccc(C)cc23)N(Cc2ccccc2)C1=O [Compound 7g, (2E)-Methyl 2-(3-benzyl-2-(2-(2-((6-methyl-2-oxo-1,2-dihydroquinolin-4-yl)oxy)acetyl)-hydrazono)-4-oxothiazolidin-5-ylidene)acetate]
- melting point: 241 to 243 °C
- IC50 [1]: 45.43 ± 0.19 µM
- MIC [2]: 200 µg/mL (≈ 395 µM)

SMILES: Cn1c(=O)cc(OCC(=O)NNC(=S)Nc2ccccc2)c2ccccc21 [Compound 5c, 2-(2-((1-Methyl-2-oxo-1,2-dihydroquinolin-4-yl)oxy)acetyl)-N-phenylhydrazinecarbothioamide]
- melting point: 161 to 163 °C
- IC50 [1]: 1.83 ± 0.79 µM
- fold more potent than thiourea and acetohydroxamic acid (urease inhibition) ([1]; relative to the reference inhibitors): approximately 12 fold
- MIC [2]: 100 µg/mL (≈ 261 µM)

SMILES: COC(=O)/C=C1/SC(=NNC(=O)COc2cc(=O)[nH]c3ccccc23)N(Cc2ccccc2)C1=O [Compound 7k, (2E)-Methyl 2-(3-benzyl-4-oxo-2-(2-(2-((2-oxo-1,2-dihydroquinolin-4-yl)oxy)acetyl)-hydrazono)thiazolidin-5-ylidene)acetate]
- melting point: 251 to 253 °C
- IC50 [1]: 49.45 ± 0.09 µM
- MIC [2]: 200 µg/mL (≈ 406 µM)

SMILES: O=C(COc1cc(=O)[nH]c2ccccc12)NNC(=S)NCc1ccccc1 [Compound 5g, N-Benzyl-2-(2-((2-oxo-1,2-dihydroquinolin-4-yl)oxy)acetyl)hydrazinecarbothioamide]
- melting point: 199 to 201 °C
- IC50 [1]: 11.2 ± 0.27 µM
- MIC [2]: 100 µg/mL (≈ 261 µM)

SMILES: NC(N)=S [Thiourea]
- IC50 [1, 4]: 22.8 ± 1.31 µM

SMILES: C=CCN1C(=O)/C(=C\C(=O)OCC)S/C1=N\NC(=O)COc1cc(=O)[nH]c2ccc(C)cc12 [Compound 7e, (E)-Ethyl 2-((Z)-3-allyl-2-(2-(2-((6-methyl-2-oxo-1,2-dihydroquinolin-4-yl)oxy)acetyl)-hydrazono)-4-oxothiazolidin-5-ylidene)acetate]
- melting point: 239 to 241 °C
- IC50 [1]: 29.8 ± 1.31 µM
- MIC [2]: 200 µg/mL (≈ 425 µM)

SMILES: C=CCN1C(=O)/C(=C\C(=O)OC)SC1=NNC(=O)COc1cc(=O)n(C)c2ccccc12 [Compound 7a, (2E)-Methyl 2-(3-allyl-2-(2-(2-((1-methyl-2-oxo-1,2-dihydroquinolin-4-yl)oxy)acetyl)-hydrazono)-4-oxothiazolidin-5-ylidene)acetate]
- melting point: 233 to 235 °C
- IC50 [1]: 36.28 ± 0.1 µM
- MIC [2]: 200 µg/mL (≈ 438 µM)

SMILES: C=CCNC(=S)NNC(=O)COc1cc(=O)[nH]c2ccc(C)cc12 [Compound 5d, N-Allyl-2-(2-((6-methyl-2-oxo-1,2-dihydroquinolin-4-yl)oxy)acetyl)hydrazine-1-carbothioamide]
- melting point: 174 to 176 °C
- IC50 [1]: 5.29 ± 0.36 µM
- MIC [2]: 100 µg/mL (≈ 289 µM)

SMILES: CCOC(=O)/C=C1/S/C(=N\NC(=O)COc2cc(=O)n(C)c3ccccc23)N(Cc2ccccc2)C1=O [Compound 7b]
- melting point: 243 to 245 °C
- IC50 [1]: 24 ± 0.88 µM
- MIC [2]: 200 µg/mL (≈ 384 µM)

SMILES: COC(=O)/C=C1/SC(=NNC(=O)COc2cc(=O)n(C)c3ccccc23)N(c2ccccc2)C1=O [Compound 7c, (2E)-Methyl 2-(2-(2-(2-((1-methyl-2-oxo-1,2-dihydroquinolin-4-yl)oxy)acetyl)-hydrazono)-4-oxo-3-phenylthiazolidin-5-ylidene)acetate]
- melting point: 229 to 231 °C
- IC50 [1]: 18.8 ± 1.72 µM
- MIC [2]: 200 µg/mL (≈ 406 µM)

SMILES: Cc1ccc2[nH]c(=O)cc(OCC(=O)NNC(=S)NCc3ccccc3)c2c1 [Compound 5e, N-Benzyl-2-(2-((6-methyl-2-oxo-1,2-dihydroquinolin-4-yl)oxy)acetyl)hydrazinecarbothioamide]
- melting point: 183 to 185 °C
- IC50 [1]: 5.6 ± 0.84 µM
- MIC [2]: 100 µg/mL (≈ 252 µM)

SMILES: CCOC(=O)/C=C1/SC(=NNC(=O)COc2cc(=O)n(C)c3ccccc23)N(c2ccccc2)C1=O [Compound 7d, (2E)-Ethyl 2-(2-(2-(2-((1-methyl-2-oxo-1,2-dihydroquinolin-4-yl)oxy)acetyl)-hydrazono)-4-oxo-3-phenylthiazolidin-5-ylidene)acetate]
- melting point: 223 to 225 °C
- IC50 [1]: 26.8 ± 1.11 µM
- MIC [2]: 200 µg/mL (≈ 395 µM)

SMILES: CCOC(=O)/C=C1/S/C(=N\NC(=O)COc2cc(=O)[nH]c3ccccc23)N(Cc2ccccc2)C1=O [Compound 7l, (E)-Ethyl 2-((Z)-3-benzyl-4-oxo-2-(2-(2-((2-oxo-1,2-dihydroquinolin-4-yl)oxy)acetyl)-hydrazono)thiazolidin-5-ylidene)acetate]
- melting point: 249 to 251 °C
- IC50 [1]: 37.21 ± 0.28 µM
- MIC [2]: 200 µg/mL (≈ 395 µM)

SMILES: C=CCNC(=S)NNC(=O)COc1cc(=O)n(C)c2ccccc12 [Compound 5a, N-Allyl-2-(2-((1-methyl-2-oxo-1,2-dihydroquinolin-4-yl)oxy)acetyl)hydrazinecarbo-thioamide]
- melting point: 177 to 179 °C
- IC50 [1]: 2.48 ± 0.18 µM
- MIC [2]: 100 µg/mL (≈ 289 µM)

SMILES: C=CCN1C(=O)/C(=C\C(=O)OC)SC1=NNC(=O)COc1cc(=O)[nH]c2ccccc12 [Compound 7j, (2E)-Methyl 2-(3-allyl-4-oxo-2-(2-(2-((2-oxo-1,2-dihydroquinolin-4-yl)oxy)acetyl)-hydrazono)thiazolidin-5-ylidene)acetate]
- melting point: 244 to 246 °C
- IC50 [1]: 51.4 ± 0.91 µM
- MIC [2]: 200 µg/mL (≈ 452 µM)

SMILES: C=CCN1C(=O)/C(=C\C(=O)OCC)S/C1=N\NC(=O)COc1cc(=O)[nH]c2ccccc12 [Compound 7i, (2E)-Ethyl 2-(3-allyl-4-oxo-2-(2-(2-((2-oxo-1,2-dihydroquinolin-4-yl)oxy)acetyl)hydra-zono)thiazolidin-5-ylidene)acetate]
- IC50 [1]: 42.8 ± 1.51 µM
- MIC [2]: 200 µg/mL (≈ 438 µM)
